Results from article PMC9578396, “Intrinsic Antibacterial Activity of Xeruborbactam In Vitro: Assessing Spectrum and Mode of Action” (Antimicrobial Agents and Chemotherapy, 2022).
Read-outs that look alike come from different tables or passages of the source.

What was measured:
Type in all cases: cell-based
Pseudomonas aeruginosa = experiment: Broth microdilution MIC (CLSI), Pseudomonas aeruginosa
Excerpt: (§1) (i) Panels of engineered bacterial strains containing various combinations of porin and efflux mutations were used. The construction of all the strains used in the study is described in detail in references, [44], and [45]. (ii) KPC-producing clinical isolates and their derivatives that lost KPC plasmids were used also. These strains and their origins are described in the Table S2. (iii) Finally, KPC-producing clinical isolates enriched in strains with porin mutations were used. The mutations identified include various deletions, insertions, nonsense mutations, and decreased expression. Most of the isolates were obtained from JMI Laboratories or International Health Management Associates (IHMA); they were collected in the course of global surveillance studies.
(§2) Bacterial isolates were subjected to broth microdilution susceptibility testing, performed according to Clinical and Laboratory Standards Institute (CLSI) methods ([46]), using panels prepared in-house. […] Xeruborbactam was synthesized at Qpex Biopharma, San Diego, CA. Avibactam was purchased from eNovation Chemicals LLC, Bridgewater, NJ, USA; zidebactam was from MedKoo Biosciences, Inc., Morrisville, NC, and nacubactam was from Advanced ChemBlocks, Hayward, CA. Durlobactam was synthesized at Acme Bioscience, Palo Alto, CA, USA.

Acinetobacter baumannii = experiment: Broth microdilution MIC (CLSI), Acinetobacter baumannii; details: Acinetobacter baumannii, read-out: MIC
Excerpt: as §1, §2

Klebsiella pneumoniae = experiment: microbe, parasite or virus in culture; details: for MIC90: read-out: MIC90
Excerpt: as §1, §2

[1] = PAM1154 (oprM::Hg), xeruborbactam 0 µg/ml
[2] = Klebsiella pneumoniae, KPC-producing clinical strains with functional OmpK36, alone
[3] = Klebsiella pneumoniae, KPC-producing clinical strains with nonfunctional OmpK36, alone
[4] = Klebsiella pneumoniae, KPC-producing clinical strains, all strains (n = 141), alone

## CCN1CCN(C(=O)N[C@@H](C(=O)N[C@@H]2C(=O)N3[C@@H]2SC(C)(C)[C@@H]3C(=O)O)c2ccccc2)C(=O)C1=O [Piperacillin]
Pseudomonas aeruginosa; [1]
  MIC: 0.5 µg/mL
Pseudomonas aeruginosa; PAM1154, xeruborbactam 2 µg/ml
  MIC: 0.125 µg/mL
Pseudomonas aeruginosa; PAM1154, xeruborbactam 4 µg/ml
  MIC: 0.125 µg/mL
Pseudomonas aeruginosa; PAM1154, xeruborbactam 8 µg/ml
  MIC: 0.06 µg/mL

## CC1(C)[C@H](C(=O)O)N2C(=O)C[C@H]2S1(=O)=O [Sulbactam]
Acinetobacter baumannii; AB1007 (no beta-lactamase), xeruborbactam 0 µg/ml
  MIC: 2 µg/mL
Acinetobacter baumannii; AB1007, xeruborbactam 2 µg/ml
  MIC: 2 µg/mL
Acinetobacter baumannii; AB1007, xeruborbactam 4 µg/ml
  MIC: 2 µg/mL
Acinetobacter baumannii; AB1007, xeruborbactam 8 µg/ml
  MIC: 0.25 µg/mL

## C[C@@H](O)[C@H]1C(=O)N2C(C(=O)O)=C(SC3CN(C4=NCCS4)C3)[C@H](C)[C@H]12 [Tebipenem]
Klebsiella pneumoniae; KPM1026a (no beta-lactamase), xeruborbactam 0 µg/ml
  MIC: 0.03 µg/mL
Klebsiella pneumoniae; KPM1026a, xeruborbactam 2 µg/ml
  MIC: 0.03 µg/mL
Klebsiella pneumoniae; KPM1026a, xeruborbactam 4 µg/ml
  MIC: 0.016 µg/mL
Klebsiella pneumoniae; KPM1026a, xeruborbactam 8 µg/ml
  MIC: 0.004 µg/mL

## O=C(O)C[C@@H]1CC[C@H](NC(=O)Cc2cccs2)B(O)O1 [Vaborbactam]
Klebsiella pneumoniae; KPM1026a, vaborbactam up to 64 μg/mL, data not shown
  effect on beta-lactam MIC: no reduction
Klebsiella pneumoniae; [2]
  MIC50: > 64 µg/mL
  MIC90: > 64 µg/mL
Klebsiella pneumoniae; [3]
  MIC50: > 64 µg/mL
  MIC90: > 64 µg/mL
Klebsiella pneumoniae; [4]
  MIC50: > 64 µg/mL
  MIC90: > 64 µg/mL
Klebsiella pneumoniae; Klebsiella pneumoniae, KPM1271 (KPC-3; wild type), alone, read-out: MIC
  MIC: > 128 µg/mL
Klebsiella pneumoniae; Klebsiella pneumoniae, KPM1272 (KPC-3; ramR_fs), alone, read-out: MIC
  MIC: > 128 µg/mL
Klebsiella pneumoniae; Klebsiella pneumoniae, KPM1273 (KPC-3; ramR_fs ompK36_1171), alone, read-out: MIC
  MIC: > 128 µg/mL
Klebsiella pneumoniae; Klebsiella pneumoniae, KPM2067 (KPC-3; ompK36_fs), alone, read-out: MIC
  MIC: > 128 µg/mL
Klebsiella pneumoniae; Klebsiella pneumoniae, KPM2601 (KPC-3; ΔompK35), alone
  MIC: > 128 µg/mL
Klebsiella pneumoniae; Klebsiella pneumoniae, KPM2631 (KPC-3; ompK36_fs ΔompK35), alone
  MIC: > 128 µg/mL

## Cn1c(N)c(NC(=O)NCCN)c[n+]1CC1=C(C(=O)O)N2C(=O)[C@@H](NC(=O)/C(=N\OC(C)(C)C(=O)[O-])c3nsc(N)n3)[C@H]2SC1 [ceftolozane]
Pseudomonas aeruginosa; [1]
  MIC: 0.5 µg/mL
Pseudomonas aeruginosa; PAM1154, xeruborbactam 2 µg/ml
  MIC: 0.25 µg/mL
Pseudomonas aeruginosa; PAM1154, xeruborbactam 4 µg/ml
  MIC: 0.25 µg/mL
Pseudomonas aeruginosa; PAM1154, xeruborbactam 8 µg/ml
  MIC: 0.125 µg/mL

## CC1=C(C(=O)O)N2C(=O)[C@@H](NC(=O)[C@H](N)c3ccccc3)[C@H]2SC1 [cephalexin]
Klebsiella pneumoniae; Klebsiella pneumoniae
  MIC: 128 µg/mL
